Measured values published in a melting point compilation (Tetko et al.; mined from patent text by program, amines drawn as free bases though some values may be those of a salt).

Compound `NC(=O)c1ccc(OC(F)(F)C(F)(F)Br)cc1` has a melting point of 150 to 152 °C.
For `Cc1c(-c2cc(C(=O)O)c(Cl)cc2F)nn(C)c1C(F)(F)F`, the melting point was 155 °C.
Compound `CN1CCN(C(=O)OC2c3ccccc3C(=O)N2c2ccc3ncccc3n2)CC1` (centres undefined) has a melting point of 170 to 171 °C.
Compound `O=[N+]([O-])c1ccc(NS(=O)(=O)C(F)(F)F)c(OC2CCCCC2)c1` has a melting point of 93.5 to 95 °C.
In the case of `Cc1nc2cc(Nc3nccc(-c4ccc(Cl)nc4)n3)ccc2s1`, the melting point is reported as 235 to 237 °C.
With `COC(=O)C1COC(c2ncn3c2CN(C)C(=O)c2c(Cl)cccc2-3)=N1` (centres undefined) the melting point was 216 to 218 °C.
In the case of `Cc1c(-c2ccncc2)[nH]c(-c2ccncc2)c1C(=O)CC(C)C`, the melting point is reported as 199 to 201 °C.
For `N#Cc1cnc2cc(/C=C/CCN3CCOCC3)ccc2c1Nc1ccc(Cl)cc1Cl`, the melting point was 129 to 131 °C.
With `CCC(=O)Nc1c(C)c(C)c2c(c1C)CC(C)(C)O2` the melting point was 146 °C.
`Oc1ccc(CN2CCN(CCCN3CCN(Cc4ccc(O)cc4)CC3)CC2)cc1` gave a melting point of 197 to 201 °C.
Compound `CCCc1nn(CC)c2c(=O)[nH]c(-c3ccccc3OCC)nc12` has a melting point of 114 to 115 °C.
Work on `Cc1cc(C)c2c(=O)n(CC(=O)N3CCOCC3)sc2n1` yielded a melting point of 200 to 203 °C.
`CN1CCN(CCCCCNc2ncc3cc(-c4c(Cl)cccc4Cl)c(=O)n(C)c3n2)CC1` gave a melting point of 110 to 112 °C.
For `CCCC(=O)Nc1cc(N(CCO)CCO)ccc1N=Nc1snc(C)c1C#N`, the melting point was 175 to 178 °C.
Work on `Cn1c(Br)c(Br)c(C#N)c1Br` yielded a melting point of 151 to 152 °C.
With `C[C@@H](O)[C@H]1C(=O)N([Si](C)(C)C(C)(C)C)[C@@H]1[C@@H]1COC(C)(C)O1` the melting point was 80 to 90 °C.
`CC(=O)c1cc(NC(=O)NCCCC(C)CNC(=O)Nc2cc(C(C)=O)cc(C(C)=O)c2)cc(C(C)=O)c1` (centres undefined) showed a melting point of 128 °C.
`CC1=C(C(=O)OC(C)(C)C)C(c2cccc(Cl)c2)C(C(=O)OC(C)(C)C)=C(C)N1` gave a melting point of 190 °C.
`O=S(=O)(c1ccccc1)n1c2ccc(C=Cc3ccccc3)cc2c2c(Cl)ccnc21` gave a melting point of 216 to 218 °C.
`CN(C)c1ccc2[nH]c(=O)oc(=O)c2c1` showed a melting point of 258 °C.
Work on `O=C(O)C(=Cc1c[nH]c2ncccc12)c1ccccc1` yielded a melting point greater than 230 °C.
`CCCn1nc(C(C)C)c(C(=O)OCc2cccc(C(=O)c3ccccc3)c2)c1Cc1ccc(-c2ccccc2S(=O)(=O)NC(C)(C)C)c(F)c1` showed a melting point of 35 to 45 °C.
In the case of `C#Cc1cccc(Nc2ncnc3[nH]cc(-c4cccs4)c23)c1`, the melting point is reported as 230 to 232 °C.
For `COc1cc(C(=O)CCCN2CCC(OC(=O)c3cc(Cl)c(N)c4c3OCC4)C(OC)C2)cc(OC)c1OC` (centres undefined), the melting point was 132 °C.
Compound `COP(=O)(OC)[C@H](C)NC(=O)[C@H](C)NC(=O)[C@H](C)NC(=O)CNC(=O)OCc1ccccc1` has a melting point of 162 to 164 °C.
`Cc1ccn2c(Br)c(CCc3ccc4nc(N)sc4c3)nc2c1` gave a melting point of 233 to 236 °C.
In the case of `CCOC(=O)C1=CCCCC1S(=O)(=O)Nn1cccc1C` (centres undefined), the melting point is reported as 100 to 101 °C.
Compound `COc1ccc(CC#N)c(CC#N)c1` has a melting point of 49 to 51 °C.
Work on `O=C1C2CCCC2=Nc2ccccc2N1Cc1ccc([N+](=O)[O-])cc1` (centres undefined) yielded a melting point of 185 to 188 °C.
`NC(=O)Cc1cccc(C(=O)c2ccc(F)cc2)c1N` showed a melting point of 184 to 186 °C.
For `O=C1c2ccccc2COc2ccc(CCCOC(=O)C(F)(F)F)cc21`, the melting point was 40.5 to 41 °C.
`CCOC(=O)c1cnc2nn(C)cc2c1N1CCN(C)CC1` gave a melting point of 142 to 143 °C.
Compound `COc1ccc(C2(O)c3c(C)c(NC(=O)CC(C)(C)C)c(C)c(C)c3OC2(C)C)cc1` (centres undefined) has a melting point of 98 to 99 °C.
For `Cc1ccc(CCc2ccccc2Br)c(N)c1`, the melting point was 67 to 69 °C.
For `N#Cc1cc(-c2ccco2)nc(N)n1`, the melting point was 193 to 194 °C.
For `COC(=O)C(C)CC(=O)C(Cc1ccccc1)NC(=O)c1ccccc1` (centres undefined), the melting point was 97 to 98.5 °C.
In the case of `CC(C)(CC(O)(C(=O)Nc1ccc([N+](=O)[O-])c(C(F)(F)F)c1)C(F)(F)F)c1ccccc1` (centres undefined), the melting point is reported as 119 to 120 °C.
`Cc1coc2ncnc(N)c12` showed a melting point of 240 to 242 °C.
`O=C(O)c1ccc2nc3ccc(C(=O)O)nn3c(=O)c2c1` gave a melting point greater than 285 °C.
`O=[N+]([O-])c1ccc(O)c(CO)c1` showed a melting point of 112 to 114 °C.
For `Nc1ccc(S(=O)(=O)Nc2ccn(C3CCCC3)c(=O)n2)cc1`, the melting point was 167 to 171 °C.
`COc1cc(Sc2nc(C)c(CC(=O)O)s2)nc(OC)n1` showed a melting point of 164 to 165 °C.
Compound `Cc1nc2c(c(=O)[nH]1)-c1ccc(Cl)cc1C(c1ccccc1F)=NC2` has a melting point of 262 to 264 °C.
`Cc1cc([N+](=O)[O-])c(Cl)c([N+](=O)[O-])c1C` showed a melting point of 109 to 111 °C.
Compound `CCCCCC1CCc2cc(C(N)=O)ccc2C1` (centres undefined) has a melting point of 166 to 168 °C.
With `CCOC(=O)C1Cc2cc(-c3ccc(NC(C)=O)cc3)ccc2O1` (centres undefined) the melting point was 164 to 166 °C.
In the case of `COc1ccc2c(c1CC1CCCC1)CC[N+]([O-])=C2Cc1c(Cl)cncc1Cl`, the melting point is reported as 176 to 178 °C.
Work on `CC(C)(C)[Si](C)(C)Oc1c(I)cc(Cl)c2cccnc12` yielded a melting point of 65 to 67 °C.
For `CCOc1ccc2nc(CCl)cn2c1`, the melting point was 95 to 96 °C.
